The source of these data is ChEMBL document CHEMBL3603835, “Discovery of dihydroisoquinolinone derivatives as novel inhibitors of the p53-MDM2 interaction with a distinct binding mode” (Bioorg Med Chem Lett, 2015).

The nature of experiment [1]: Antiproliferative activity against p53 deficient human Saos2 cells. Particulars: SAOS-2.
The subject of experiment [2] is SJSA-1. In words: Antiproliferative activity against p53 positive human SJSA1 cells.
Experiment [3] has as its target Tumour suppressor p53/oncoprotein Mdm2 (Homo sapiens, UniProt Q00987). As to the kind of experiment: Inhibition of p53-MDM2 interaction (unknown origin) by TR-FRET assay. The format is protein assay. (In general: In TR-FRET formats the signal depends on donor and acceptor labels being close together.)

The structures appear in SMILES notation. pIC50: −log10 of the molar value. Bounds are passed on as bounds.

Chain of Tumour suppressor p53/oncoprotein Mdm2 (P04637 whole entry): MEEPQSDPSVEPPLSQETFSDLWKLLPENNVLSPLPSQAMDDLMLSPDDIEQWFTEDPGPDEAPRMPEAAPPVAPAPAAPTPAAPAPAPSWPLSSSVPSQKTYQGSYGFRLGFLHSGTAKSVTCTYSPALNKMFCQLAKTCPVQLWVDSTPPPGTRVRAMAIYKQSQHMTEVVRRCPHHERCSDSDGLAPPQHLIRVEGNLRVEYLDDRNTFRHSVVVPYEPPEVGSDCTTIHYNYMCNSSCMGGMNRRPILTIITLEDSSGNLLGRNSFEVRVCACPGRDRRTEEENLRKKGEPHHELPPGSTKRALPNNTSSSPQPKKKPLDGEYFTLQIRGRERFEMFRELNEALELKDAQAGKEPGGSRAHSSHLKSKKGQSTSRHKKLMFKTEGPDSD
Chain of Tumour suppressor p53/oncoprotein Mdm2 (Q00987 whole entry): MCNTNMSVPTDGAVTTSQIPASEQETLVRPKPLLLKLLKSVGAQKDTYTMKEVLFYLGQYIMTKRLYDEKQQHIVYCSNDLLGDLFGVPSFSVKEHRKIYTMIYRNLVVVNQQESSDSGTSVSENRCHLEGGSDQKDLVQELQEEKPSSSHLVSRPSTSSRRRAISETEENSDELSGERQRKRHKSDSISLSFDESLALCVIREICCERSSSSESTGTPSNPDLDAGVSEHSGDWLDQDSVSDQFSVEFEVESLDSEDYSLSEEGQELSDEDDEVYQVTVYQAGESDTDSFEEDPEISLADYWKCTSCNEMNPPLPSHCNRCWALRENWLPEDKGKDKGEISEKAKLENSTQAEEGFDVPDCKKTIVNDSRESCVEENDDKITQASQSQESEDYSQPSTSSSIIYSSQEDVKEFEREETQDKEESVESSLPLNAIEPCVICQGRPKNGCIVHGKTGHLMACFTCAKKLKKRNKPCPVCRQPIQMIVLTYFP

As to `CC[C@@H](C)Oc1cc2c(cc1OC)CC(=O)N(c1ccc(N(C)Cc3ccncc3)cc1)[C@@H]2c1ccc(Cl)cc1`, the pIC50 (commonly −log10 of the IC50, conventionally taken in molar units) in experiment [1] was below 4.52; in experiment [2], 4.53.

With `CCOc1cc2c(cc1OCC)C(c1ccc(Cl)cc1)N(c1ccc(OC)cc1)C(=O)C2` (racemic), the pIC50 in experiment [3] is 6.27; in experiment [1] it was 4.71; in experiment [2], 4.78.

As to `CC[C@@H](C)Oc1cc2c(cc1OC)CC(=O)N(c1ccc(N(C)Cc3cccc(F)c3)cc1)C2c1ccc(Cl)cc1` (some centres not stated), in experiment [3], the pIC50 is 6.77.

The compound `CCOc1cc2c(cc1OCC)C(c1ccc(Cl)cc1)N(c1cccc(Cl)c1)C(=O)C2` (racemic) showed a pIC50 in experiment [3] of 5.85.

In experiment [3], `CC[C@@H](C)Oc1cc2c(cc1OC)CC(=O)N(c1ccc(N(C)Cc3cccnc3)cc1)C2c1ccc(Cl)cc1` (some centres not stated) had a negative logarithm of the IC50 (pIC50) of 7.82.

For the compound `CC[C@@H](C)Oc1cc2c(cc1OC)CC(=O)N(c1ccc(N(C)Cc3ccncc3)cc1)[C@H]2c1ccc(Cl)cc1`, the pIC50 in experiment [1] was 4.92; in experiment [2], 5.92.

The compound `CCOc1cc2c(cc1OCC)C(c1ccc(Cl)cc1)N(c1ccc(Cl)cc1)C(=O)C2` (racemic) showed a pIC50 in experiment [3] of 6.00.

In turn, `CC[C@@H](C)Oc1cc2c(cc1OC)CC(=O)N(c1ccc(N(C)Cc3ccc(F)cc3)cc1)C2c1ccc(Cl)cc1` (some centres not stated) gave a pIC50 in experiment [3] of 6.92.
